Results: ChEMBL document CHEMBL5214915 (Eur J Med Chem, 2021)
≈ marks a conversion by molar mass, not a printed value.

Assays:
[1] = tested on: Mycobacterium tuberculosis; experiment: Antibacterial activity against Mycobacterium tuberculosis incubated for 1 to 2 weeks in 7H9/ADC/Tw medium; assay type: functional; settings: time 1-2 weeks
[2] = tested on: Mycobacterium tuberculosis; experiment: Antibacterial activity against Mycobacterium tuberculosis incubated for 1 to 2 weeks in 7H9/DPPC/casitone/Tx medium; assay type: functional; settings: time 1-2 weeks
[3] = tested on: Mycobacterium tuberculosis; experiment: Antibacterial activity against Mycobacterium tuberculosis incubated for 1 to 2 weeks in GastFe medium; assay type: functional; settings: time 1-2 weeks
[4] = tested on: Vero; experiment: Cytotoxicity against African green monkey Vero cells measured after 72 hrs by tetrazolium-based colorimetric MTT assay; assay type: toxicity, cell-based; settings: chlorocebus sabaeus
[5] = Mycobacterium tuberculosis, read-out: MIC99

SMILES	MIC99 [1, 5] [µM]	MIC99 [2, 5] [µM]	MIC99 [3, 5] [µM]	CC50 [4] [µM]	MIC99 [1] [µM]	MIC99 [2] [µM]	MIC99 [3] [µM]
Nc1cccc(F)c1C(=O)NC1CC1	> 50	> 50	> 50	–	–	–	–
CC(C)NC(=O)c1c(N)cccc1F	> 50	> 50	> 50	–	–	–	–
Nc1cccc(F)c1-c1nnn[nH]1	> 50	> 50	> 50	–	–	–	–
Nc1cccc(F)c1C(=O)NNc1cccc(F)c1	12.5 (≈ 3.29 µg/mL)	1.56 (≈ 0.411 µg/mL)	6.25 (≈ 1.65 µg/mL)	1360	–	–	–
Nc1cccc(F)c1C(=O)NNc1ccc(F)cc1	–	1.56 (≈ 0.411 µg/mL)	2.3 (≈ 0.605 µg/mL)	1360	9.4 (≈ 2.47 µg/mL)	–	–
Nc1cccc(F)c1C(=O)Nc1ccc(F)cc1	> 50	> 50	> 50	–	–	–	–
Nc1cccc(F)c1C(=O)NNc1cccc(Cl)c1Cl	50 (≈ 15.7 µg/mL)	6.25 (≈ 1.96 µg/mL)	12.5 (≈ 3.93 µg/mL)	> 1800	–	–	–
Nc1cccc(F)c1C(=O)O	5 (≈ 0.776 µg/mL)	–	–	74	–	–	–
Cc1nnc(-c2c(N)cccc2F)o1	> 50	> 50	> 50	–	–	–	–
Nc1cccc(F)c1C(=O)NNc1cc(Cl)cc(Cl)c1	> 50	6.25 (≈ 1.96 µg/mL)	25 (≈ 7.85 µg/mL)	–	–	–	–
Nc1cccc(F)c1C(=O)NNc1ccc(Cl)cc1	12.6 (≈ 3.51 µg/mL)	1.56 (≈ 0.436 µg/mL)	3.12 (≈ 0.874 µg/mL)	373	–	–	–
Cc1nc(-c2c(N)cccc2F)no1	> 50	> 50	> 50	–	–	–	–
Nc1cccc(F)c1C(=O)NNc1cccc(Cl)c1	25 (≈ 6.99 µg/mL)	1.56 (≈ 0.436 µg/mL)	6.25 (≈ 1.75 µg/mL)	> 1800	–	–	–
Nc1cccc(F)c1C(=O)N1CCOCC1	> 50	> 50	> 50	–	–	–	–
Nc1cccc(F)c1C(=O)NNc1ccc(Cl)c(Cl)c1	25 (≈ 7.85 µg/mL)	1.56 (≈ 0.49 µg/mL)	12.5 (≈ 3.93 µg/mL)	> 1800	–	–	–
Nc1cccc(F)c1C(=O)N1CCCCC1	> 50	> 50	> 50	–	–	–	–
CC(C)(C)OC(=O)NNC(=O)c1c(N)cccc1F	> 50	> 50	> 50	–	–	–	–
Nc1cccc(F)c1C(=O)NNc1ccccc1Cl	25 (≈ 6.99 µg/mL)	3.12 (≈ 0.874 µg/mL)	3.12 (≈ 0.874 µg/mL)	792	–	–	–
CONC(=O)c1c(N)cccc1F	> 50	> 50	> 50	–	–	–	–
Nc1cccc(F)c1C(=O)NNCc1ccccc1	> 50	50 (≈ 13 µg/mL)	> 50	–	–	–	–
Nc1cccc(F)c1C(=O)NO	> 50	> 50	> 50	–	–	–	–
NNC(=O)c1ccncc1 [ISONIAZID]	–	0.1 (≈ 0.0137 µg/mL)	–	–	–	–	–

SMILES	MIC99 [1, 5] [µM]	MIC99 [2, 5] [µM]	MIC99 [3, 5] [µM]	CC50 [4] [µM]	MIC99 [1] [µM]	MIC99 [2] [µM]	MIC99 [3] [µM]
Nc1cccc(F)c1C(=O)NNc1ccccc1	–	1.56 (≈ 0.383 µg/mL)	–	2030	12.5 (≈ 3.07 µg/mL)	–	–
NNC(=O)c1c(N)cccc1F	> 50	> 50	> 50	–	–	–	–
Nc1cccc(F)c1C(=O)NNc1ccc([N+](=O)[O-])cc1[N+](=O)[O-]	> 50	> 50	> 50	–	–	–	–
Nc1cccc(F)c1C(=O)NC1CCCCC1	> 50	> 50	> 50	–	–	–	–
Nc1cccc(F)c1C(=O)NCCO	> 50	> 50	> 50	–	–	–	–
Cl.Nc1cccc(F)c1C(=O)NNc1ccccc1	–	–	–	> 1800	–	1.3	2.3
NC(=O)c1c(N)cccc1F	> 50	> 50	> 50	–	–	–	–
Nc1cccc(F)c1C(N1CCSCC1)C(F)(F)F (stereo not drawn)	50 (≈ 14.7 µg/mL)	50 (≈ 14.7 µg/mL)	50 (≈ 14.7 µg/mL)	–	–	–	–
Nc1cccc(F)c1C(=O)NNc1cccc([N+](=O)[O-])c1	> 50	6.25 (≈ 1.81 µg/mL)	25 (≈ 7.26 µg/mL)	1300	–	–	–
Nc1cccc(F)c1C(=O)NNc1cc(Cl)ccc1Cl	> 50	6.25 (≈ 1.96 µg/mL)	25 (≈ 7.85 µg/mL)	> 1800	–	–	–
Nc1cccc(F)c1C(=O)NNc1ccccc1[N+](=O)[O-]	> 50	50 (≈ 14.5 µg/mL)	> 50	–	–	–	–
Nc1cccc(F)c1C(=O)NNc1c(Cl)cc(Cl)cc1Cl	5 (≈ 1.74 µg/mL)	0.625 (≈ 0.218 µg/mL)	1.25 (≈ 0.436 µg/mL)	> 1800	–	–	–
CN1CCN(C(=O)c2c(N)cccc2F)CC1	> 50	> 50	> 50	–	–	–	–
Nc1cccc(F)c1C(=O)NC1CCC1	> 50	> 50	> 50	–	–	–	–
Nc1cccc(F)c1C(N1CCOCC1)C(F)(F)F (stereo not drawn)	50 (≈ 13.9 µg/mL)	50 (≈ 13.9 µg/mL)	50 (≈ 13.9 µg/mL)	–	–	–	–
Nc1cccc(F)c1C(=O)NNc1ccc(Cl)cc1Cl	50 (≈ 15.7 µg/mL)	3.12 (≈ 0.982 µg/mL)	6.25 (≈ 1.96 µg/mL)	1040	–	–	–
Nc1cccc(F)c1C(=O)N1CCCC1	> 50	> 50	> 50	–	–	–	–
COc1ccc(NNC(=O)c2c(N)cccc2F)cc1	12.5 (≈ 3.44 µg/mL)	1.56 (≈ 0.429 µg/mL)	0.78 (≈ 0.215 µg/mL)	1310	–	–	–
Nc1cccc(F)c1C(=O)NNC1CCCCC1	9.4 (≈ 2.36 µg/mL)	9.4 (≈ 2.36 µg/mL)	50 (≈ 12.6 µg/mL)	909	–	–	–
Nc1cccc(F)c1C(=O)NNc1ccc(C(F)(F)F)cc1	45.5 (≈ 14.2 µg/mL)	2.84 (≈ 0.89 µg/mL)	11.4 (≈ 3.56 µg/mL)	1360	–	–	–
Cl.Nc1cccc(F)c1C(=O)NNc1ccc(F)cc1	–	–	–	> 1800	–	1.4	1.4
Nc1cccc(F)c1C(Nc1ccc(F)cc1)C(F)(F)F (stereo not drawn)	50 (≈ 15.1 µg/mL)	50 (≈ 15.1 µg/mL)	50 (≈ 15.1 µg/mL)	–	–	–	–
